# In patent US20240116985A1, “STAPLED PEPTIDES AND METHODS THEREOF” (priority 2020, published 2024):
# pIC50: −log10 of the molar value. Where two headings read alike, the source gives them in different places.
# Tests used:
# [1] = target: T1, full-length beta-Catenin (Uniprot ID P35222) (Homo sapiens, UniProt P35222); assay: Fluorescence polarization IC50 (beta-catenin / 5FAM-TCF4 10-53 competition); type: binding
# T1 construct: 10 nM full-length beta-Catenin (Uniprot ID P35222)
# T1 sequence (P35222 1-781): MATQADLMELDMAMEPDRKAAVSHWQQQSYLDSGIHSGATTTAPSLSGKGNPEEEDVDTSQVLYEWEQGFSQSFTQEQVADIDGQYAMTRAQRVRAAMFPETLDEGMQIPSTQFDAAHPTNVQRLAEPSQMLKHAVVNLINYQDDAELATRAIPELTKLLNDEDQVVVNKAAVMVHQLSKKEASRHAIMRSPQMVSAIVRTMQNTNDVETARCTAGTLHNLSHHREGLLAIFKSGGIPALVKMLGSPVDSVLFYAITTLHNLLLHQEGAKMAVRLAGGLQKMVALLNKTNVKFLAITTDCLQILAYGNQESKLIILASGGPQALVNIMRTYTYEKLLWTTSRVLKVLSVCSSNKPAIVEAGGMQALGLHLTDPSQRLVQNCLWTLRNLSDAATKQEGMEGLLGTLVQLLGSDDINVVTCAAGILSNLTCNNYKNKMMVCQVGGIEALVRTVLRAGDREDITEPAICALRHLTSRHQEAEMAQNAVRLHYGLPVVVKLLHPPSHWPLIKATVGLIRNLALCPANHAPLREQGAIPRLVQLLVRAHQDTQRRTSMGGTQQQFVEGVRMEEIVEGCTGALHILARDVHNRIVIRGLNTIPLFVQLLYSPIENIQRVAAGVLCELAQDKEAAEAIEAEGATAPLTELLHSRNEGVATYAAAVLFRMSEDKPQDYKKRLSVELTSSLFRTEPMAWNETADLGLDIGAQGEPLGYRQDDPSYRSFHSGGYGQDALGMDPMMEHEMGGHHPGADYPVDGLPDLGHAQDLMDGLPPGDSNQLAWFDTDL
# CHI Log D procedure = type: physicochemical; conditions: for CHI Log D: pH 7.4; for chromatographic logD: pH 7.4, CHI Log D
# [2] = target: T2, beta-catenin/TCF4 engagement (Homo sapiens, UniProt P35222); assay: Nano-BRET target engagement assay (B-cat-Halo & TCF4-Luc in HEK293 cells); type: cell-based
# T2 construct: expressed in transfected cells; host or cells: HEK293
# T2 sequence (P35222 1-781): T1 sequence (P35222 1-781)
# [3] = fluorescence polarization, beta-catenin, read-out: FP EC50
# [4] = absolute IC50, read-out: NanoBRET Abs IC50
SMILES,"pIC50 [1, 3]",pIC50 ([1]; read-out: beta-Catenin FP IC50),CHI Log D (CHI Log D procedure),pIC50 ([2]; read-out: NanoBRET Abs IC50),pIC50 ([2]; read-out: NanoBRET IC50),chromatographic logD (CHI Log D procedure),"pIC50 [2, 4]"
"CC(=O)N1CCC[C@]12CC=CCCCC1(CCCC=CCCCOC(=O)N3CC[C@@](C(=O)N[C@@H](Cc4cccc(Cl)c4)C(=O)N[C@@H](Cc4csc5ccccc45)C(=O)N[C@@H](CCC(N)=O)C(N)=O)(C3)NC(=O)[C@H](CC(N)=O)NC(=O)[C@H](Cc3ccccc3)NC(=O)[C@H](C)NC(=O)[C@H](C)NC(=O)[C@H](CN(CC(=O)O)CC(F)(F)F)NC(=O)[C@H](CC(=O)O)NC1=O)NC(=O)[C@H](CC(C)(C)C)NC(=O)[C@H](CC(=O)O)NC2=O (stereo partly drawn) [I-926, Ac-PL3-Asp-Npg-B5-Asp-TfeGA-Ala-Ala-Phe-Asn-PyrS2-3C1F-BztA-Gln-NH2]",7.37,7.37,2.406,,4.77,,
"CC(=O)N1CCC[C@]12CC=CCCCC1(CCCC=CCCCOC(=O)N3CC[C@@](C(=O)N[C@@H](Cc4ccccc4C(F)(F)F)C(=O)N[C@@H](Cc4csc5ccccc45)C(=O)N[C@@H](CCC(N)=O)C(N)=O)(C3)NC(=O)[C@H](CC(N)=O)NC(=O)[C@H](Cc3ccccc3)NC(=O)[C@H](C)NC(=O)[C@H](C)NC(=O)[C@H](CN(CC(=O)O)CC(F)(F)F)NC(=O)[C@H](CC(=O)O)NC1=O)NC(=O)[C@H](CC(C)(C)C)NC(=O)[C@H](CC(=O)O)NC2=O (stereo partly drawn) [I-928, Ac-PL3-Asp-Npg-B5-Asp-TfeGA-Ala-Ala-Phe-Asn-PyrS2-2F3MeF-BztA-Gln-NH2]",7.68,7.68,2.38,5.21,5.30,,
"CC(=O)N1CCC[C@]12CC=CCCCC1(CCCC=CCCCCCC[C@@](C)(C(=O)N[C@@H](Cc3ccccc3Cl)C(=O)N[C@@H](Cc3csc4ccccc34)C(=O)N[C@@H](CCC(N)=O)C(N)=O)NC(=O)[C@H](CC(N)=O)NC(=O)[C@H](Cc3ccccc3)NC(=O)[C@H](C)NC(=O)[C@H](C)NC(=O)[C@H](CN(CC(=O)O)CC(F)(F)F)NC(=O)[C@H](CC(=O)O)NC1=O)NC(=O)[C@H](CC(C)(C)C)NC(=O)[C@H](CC(=O)O)NC2=O (stereo partly drawn) [I-929, Ac-PL3-Asp-Npg-B5-Asp-TfeGA-Ala-Ala-Phe-Asn-S8-2C1F-BztA-Gln-NH2]",,7.64,,4.99,5.15,2.74,
"CC(=O)N1CCC[C@]12CC=CCCCC1(CCCC=CCCCCCC[C@@](C)(C(=O)N[C@@H](Cc3ccccc3Cl)C(=O)N[C@@H](Cc3csc4ccccc34)C(=O)N[C@@H](CCC(N)=O)C(N)=O)NC(=O)[C@H]([C@@H](C)O)NC(=O)[C@H](Cc3ccccc3)NC(=O)[C@H](C)NC(=O)[C@H](C)NC(=O)[C@H](CN(CC(=O)O)CC(F)(F)F)NC(=O)[C@H](CC(=O)O)NC1=O)NC(=O)[C@H](CC(C)(C)C)NC(=O)[C@H](CC(=O)O)NC2=O (stereo partly drawn) [I-930, Ac-PL3-Asp-Npg-B5-Asp-TfeGA-Ala-Ala-Phe-Thr-S8-2C1F-BztA-Gln-NH2]",,7.43,,4.87,5.25,2.96,
"CC(=O)N1CCC[C@]12CC=CCCCC1(CCCC=CCCCCCC[C@@](C)(C(=O)N[C@@H](Cc3ccccc3Br)C(=O)N[C@@H](Cc3csc4ccccc34)C(=O)N[C@@H](CCC(N)=O)C(N)=O)NC(=O)[C@H](CC(N)=O)NC(=O)[C@H](Cc3ccccc3)NC(=O)[C@H](C)NC(=O)[C@H](C)NC(=O)[C@H](CN(CC(=O)O)CC(F)(F)F)NC(=O)[C@H](CC(=O)O)NC1=O)NC(=O)[C@H](CC(C)(C)C)NC(=O)[C@H](CC(=O)O)NC2=O (stereo partly drawn) [I-932, Ac-PL3-Asp-Npg-B5-Asp-TfeGA-Ala-Ala-Phe-Asn-S8-2BrF-BztA-Gln-NH2]",,7.46,,,,2.77,4.94
"CC(=O)N1CCC[C@]12CC=CCCCC1(CCCC=CCCCCCC[C@@](C)(C(=O)N[C@@H](Cc3cccc(Cl)c3)C(=O)N[C@@H](Cc3csc4ccccc34)C(=O)N[C@@H](CCC(N)=O)C(N)=O)NC(=O)[C@H](CC(N)=O)NC(=O)[C@H](Cc3ccccc3)NC(=O)[C@H](C)NC(=O)[C@H](C)NC(=O)[C@H](CN(CC(=O)O)CC(F)(F)F)NC(=O)[C@H](CC(=O)O)NC1=O)NC(=O)[C@H](CC(C)(C)C)NC(=O)[C@H](CC(=O)O)NC2=O (stereo partly drawn) [I-933, Ac-PL3-Asp-Npg-B5-Asp-TfeGA-Ala-Ala-Phe-Asn-S8-3C1F-BztA-Gln-NH2]",,6.77,,4.65,< 4.70,3.03,

# Other lines, results leading:
"pIC50 [1, 3]",pIC50 ([1]; read-out: beta-Catenin FP IC50),CHI Log D (CHI Log D procedure),pIC50 ([2]; read-out: NanoBRET Abs IC50),pIC50 ([2]; read-out: NanoBRET IC50),chromatographic logD (CHI Log D procedure),"pIC50 [2, 4]",SMILES
7.68,7.68,2.344,4.70,,,,"CC(=O)N1CCC[C@]12CC=CCCCC1(CCCC=CCCCOC(=O)N3CC[C@@](C(=O)N[C@@H](Cc4cccc(Cl)c4)C(=O)N[C@@H](Cc4csc5ccccc45)C(=O)N[C@@H](CCC(N)=O)C(N)=O)(C3)NC(=O)[C@H](CC(N)=O)NC(=O)[C@H](Cc3ccccc3)NC(=O)[C@H](C)NC(=O)[C@H](C)NC(=O)[C@H](CN(CC(=O)O)CC(F)(F)F)NC(=O)[C@H](CC(=O)O)NC1=O)NC(=O)[C@H](CC(C)(C)C)NC(=O)[C@H](CC(=O)O)NC2=O (stereo partly drawn) [I-925, Ac-PL3-Asp-Npg-B5-Asp-TfeGA-Ala-Ala-Phe-Asn-PyrS2-3C1F-BztA-Gln-NH2]"
,8.10,,4.48,,1.93,,"C#CCOCCC(=O)NCCCC[C@H](NC(=O)[C@H](CCC(N)=O)NC(=O)[C@H](Cc1csc2ccccc12)NC(=O)[C@H](Cc1ccsc1)NC(=O)[C@]12CCN(C1)C(=O)OCCCC=CCCCC1(CCCC=CC[C@]3(CCCN3C(C)=O)C(=O)N[C@@H](CC(=O)O)C(=O)N[C@@H](CC(C)(C)C)C(=O)N1)C(=O)N[C@@H](CC(=O)O)C(=O)N[C@@H](CC(=O)O)C(=O)N[C@@H](C)C(=O)N[C@@H](C)C(=O)N[C@@H](Cc1ccccc1)C(=O)N[C@@H](CC(N)=O)C(=O)N2)C(N)=O (stereo partly drawn) [I-935, Ac-PL3-Asp-Npg-B5-Asp-Asp-Ala-Ala-Phe-Asn-PyrS2-3Thi-BztA-Gln-[PropynPEG1]Lys-NH2]"
,8.15,,4.65,,1.94,,"C#CCOCCOCCC(=O)NCCCC[C@H](NC(=O)[C@H](CCC(N)=O)NC(=O)[C@H](Cc1csc2ccccc12)NC(=O)[C@H](Cc1ccsc1)NC(=O)[C@]12CCN(C1)C(=O)OCCCC=CCCCC1(CCCC=CC[C@]3(CCCN3C(C)=O)C(=O)N[C@@H](CC(=O)O)C(=O)N[C@@H](CC(C)(C)C)C(=O)N1)C(=O)N[C@@H](CC(=O)O)C(=O)N[C@@H](CC(=O)O)C(=O)N[C@@H](C)C(=O)N[C@@H](C)C(=O)N[C@@H](Cc1ccccc1)C(=O)N[C@@H](CC(N)=O)C(=O)N2)C(N)=O (stereo partly drawn) [I-936, Ac-PL3-Asp-Npg-B5-Asp-Asp-Ala-Ala-Phe-Asn-PyrS2-3Thi-BztA-Gln-[PropynPEG2]Lys-NH2]"
,8.05,,4.54,,1.94,,"C#CCOCCOCCOCCC(=O)NCCCC[C@H](NC(=O)[C@H](CCC(N)=O)NC(=O)[C@H](Cc1csc2ccccc12)NC(=O)[C@H](Cc1ccsc1)NC(=O)[C@]12CCN(C1)C(=O)OCCCC=CCCCC1(CCCC=CC[C@]3(CCCN3C(C)=O)C(=O)N[C@@H](CC(=O)O)C(=O)N[C@@H](CC(C)(C)C)C(=O)N1)C(=O)N[C@@H](CC(=O)O)C(=O)N[C@@H](CC(=O)O)C(=O)N[C@@H](C)C(=O)N[C@@H](C)C(=O)N[C@@H](Cc1ccccc1)C(=O)N[C@@H](CC(N)=O)C(=O)N2)C(N)=O (stereo partly drawn) [I-937, Ac-PL3-Asp-Npg-B5-Asp-Asp-Ala-Ala-Phe-Asn-PyrS2-3Thi-BztA-Gln-[PropynPEG3]Lys-NH2]"
,7.96,,,,2.04,4.48,"CC(=O)N1CCC[C@]12CC=CCCCC1(CCCC=CCCCOC(=O)N3CC[C@@](C(=O)N[C@@H](Cc4ccccc4Cl)C(=O)N[C@@H](Cc4csc5ccccc45)C(=O)N[C@@H](CCC(N)=O)C(N)=O)(C3)NC(=O)[C@H](CC(N)=O)NC(=O)[C@H](Cc3ccccc3)NC(=O)[C@H](C)NC(=O)[C@H](CO)NC(=O)[C@H](CN(CC(=O)O)CC(F)(F)F)NC(=O)[C@H](CC(=O)O)NC1=O)NC(=O)[C@H](CC(C)(C)C)NC(=O)[C@H](CC(=O)O)NC2=O (stereo partly drawn) [I-1009, Ac-PL3-Asp-Npg-B5-Asp-TfeGA-Ser-Ala-Phe-Asn-PyrS2-2C1F-BztA-Gln-NH2]"
,8.10,,,,2.36,4.88,"CC[C@H](C)[C@@H]1NC(=O)[C@H](CN(CC(=O)O)CC(F)(F)F)NC(=O)[C@H](CC(=O)O)NC(=O)C2(CCCC=CCCCOC(=O)N3CC[C@@](C(=O)N[C@@H](Cc4ccccc4Cl)C(=O)N[C@@H](Cc4csc5ccccc45)C(=O)N[C@@H](CCC(N)=O)C(N)=O)(C3)NC(=O)[C@H](CC(N)=O)NC(=O)[C@H](Cc3ccccc3)NC(=O)[C@H](C)NC1=O)CCCC=CC[C@]1(CCCN1C(C)=O)C(=O)N[C@@H](CC(=O)O)C(=O)N[C@@H](CC(C)(C)C)C(=O)N2 (stereo partly drawn) [I-1010, Ac-PL3-Asp-Npg-B5-Asp-TfeGA-Ile-Ala-Phe-Asn-PyrS2-2C1F-BztA-Gln-NH2]"
